Reference: BindingDB's records for doi:10.1021/jm030354b (Millennium Pharmaceuticals, 2004)

Assays:
[1] = target: T1, Integrin alpha-IIb/beta-3 (Homo sapiens, UniProt P08514+P05106); experiment: Inhibition of platelet aggregation induced by 20 uM adenosine 5-diphosphate (ADP) in citreated human platelet rich plasma (h-PRP)
[2] = target: T1, Integrin alpha-IIb/beta-3; experiment: Inhibition of human platelet (h-PRP) aggregation induced by 20 uM ADP with PPACK
[3] = Inhibition of citreated human (h-PRP) platelet aggregation induced by 5 uM TRAP6
[4] = Inhibition of human platelet (h-PRP) aggregation induced by 5 uM TRAP6 with PPACK
[5] = Inhibition of human platelet (h-PRP) aggregation induced by 20 uM ADP with PPACK
[6] = Inhibition of citreated human platelet (h-PRP) aggregation induced by 4 ug/mL collagen
[7] = Inhibition of human platelet (h-PRP) aggregation induced by 4 ug/mL collagen with PPACK

T1 sequence (P05106 27-788 limits assumed): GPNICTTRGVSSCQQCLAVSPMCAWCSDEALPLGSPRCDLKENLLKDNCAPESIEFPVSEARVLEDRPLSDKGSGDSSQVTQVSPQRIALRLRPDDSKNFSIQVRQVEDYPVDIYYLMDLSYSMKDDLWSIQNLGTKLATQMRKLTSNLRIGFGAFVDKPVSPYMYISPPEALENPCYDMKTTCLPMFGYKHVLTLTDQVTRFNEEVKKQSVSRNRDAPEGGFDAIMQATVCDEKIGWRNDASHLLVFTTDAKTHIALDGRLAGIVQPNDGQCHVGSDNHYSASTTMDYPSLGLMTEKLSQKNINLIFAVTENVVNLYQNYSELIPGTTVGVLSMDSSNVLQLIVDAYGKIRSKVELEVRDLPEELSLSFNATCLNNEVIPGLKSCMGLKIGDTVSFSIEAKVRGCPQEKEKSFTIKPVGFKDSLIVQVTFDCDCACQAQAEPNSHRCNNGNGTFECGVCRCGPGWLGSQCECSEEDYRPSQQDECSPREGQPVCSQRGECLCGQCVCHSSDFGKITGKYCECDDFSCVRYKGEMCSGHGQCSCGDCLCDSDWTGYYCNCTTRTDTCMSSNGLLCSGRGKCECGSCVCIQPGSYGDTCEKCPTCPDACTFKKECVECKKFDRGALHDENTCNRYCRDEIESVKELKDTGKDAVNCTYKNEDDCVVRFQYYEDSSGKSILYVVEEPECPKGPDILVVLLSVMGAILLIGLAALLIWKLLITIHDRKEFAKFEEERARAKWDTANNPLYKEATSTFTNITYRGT
T1 sequence (P08514 32-887 limits assumed): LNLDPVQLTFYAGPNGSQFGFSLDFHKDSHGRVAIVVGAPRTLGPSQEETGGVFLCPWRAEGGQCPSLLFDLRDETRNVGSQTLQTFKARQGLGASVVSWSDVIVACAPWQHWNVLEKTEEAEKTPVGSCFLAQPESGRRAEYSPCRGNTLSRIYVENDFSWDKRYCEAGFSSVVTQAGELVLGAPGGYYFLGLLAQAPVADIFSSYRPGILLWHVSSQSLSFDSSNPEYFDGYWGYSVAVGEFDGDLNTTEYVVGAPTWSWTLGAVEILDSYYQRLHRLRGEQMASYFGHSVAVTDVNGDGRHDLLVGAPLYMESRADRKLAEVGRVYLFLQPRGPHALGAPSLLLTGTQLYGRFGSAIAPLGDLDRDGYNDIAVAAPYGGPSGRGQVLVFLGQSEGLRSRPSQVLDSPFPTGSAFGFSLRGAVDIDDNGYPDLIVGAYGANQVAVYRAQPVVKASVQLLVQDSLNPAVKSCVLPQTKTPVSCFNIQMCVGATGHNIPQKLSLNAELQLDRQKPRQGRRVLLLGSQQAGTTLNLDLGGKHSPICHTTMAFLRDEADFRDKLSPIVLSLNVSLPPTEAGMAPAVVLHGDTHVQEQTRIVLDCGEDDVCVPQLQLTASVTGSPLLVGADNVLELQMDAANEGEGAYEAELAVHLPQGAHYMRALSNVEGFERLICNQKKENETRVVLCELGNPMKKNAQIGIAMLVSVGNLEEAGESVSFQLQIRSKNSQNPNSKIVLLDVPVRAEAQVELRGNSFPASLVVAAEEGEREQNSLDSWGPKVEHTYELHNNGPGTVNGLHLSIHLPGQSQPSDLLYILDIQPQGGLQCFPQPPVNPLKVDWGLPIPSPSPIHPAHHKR
T1 sequence (P08514 891-1039 limits assumed): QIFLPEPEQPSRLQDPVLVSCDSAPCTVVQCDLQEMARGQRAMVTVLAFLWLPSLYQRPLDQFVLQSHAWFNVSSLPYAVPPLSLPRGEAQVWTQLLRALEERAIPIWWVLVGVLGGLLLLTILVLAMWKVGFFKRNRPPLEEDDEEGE

Row | SMILES | IC50 [1] | IC50 [2] | IC50 [3] | IC50 [4] | IC50 [5] | IC50 [6] | IC50 [7]
1 | N=C(N)c1ccc(N2CC3(CCN(C(=O)CCCC(=O)O)CC3)NC2=O)cc1 [5-[3-(4-Carbamimidoyl-phenyl)-2-oxo-1,3,8-triaza-spiro[4.5]dec-8-yl]-5-oxo-pentanoic acid] | 1020 nM | – | – | – | – | – | –
2 | CCNC(=N)c1ccc(N2CCC3(CCN(C(=O)CCCC(=O)O)CC3)C2=O)cc1 [5-{2-[4-(N-Ethylcarbamimidoyl)-phenyl]-1-oxo-2,8-diaza-spiro[4.5]dec-8-yl}-5-oxo-pentanoic acid] | 7540 nM | – | – | – | – | – | –
3 | N=C(N)c1ccc(N2CCC3(CCN(C(=O)CCCCC(=O)O)CC3)C2=O)cc1 [6-[2-(4-Carbamimidoyl-phenyl)-1-oxo-2,8-diaza-spiro[4.5]dec-8-yl]-6-oxo-hexanoic acid] | 3400 nM | – | – | – | – | – | –
4 | N=C(N)c1ccc(N2CC3(CCN(C(=O)CCCCC(=O)O)CC3)CC2=O)cc1 [6-[2-(4-Carbamimidoyl-phenyl)-3-oxo-2,8-diaza-spiro[4.5]dec-8-yl]-6-oxo-hexanoic acid] | 4100 nM | – | – | – | – | – | –
5 | C[C@H](CC(=O)O)NC(=O)N1CCC2(CC1)CCN(c1ccc(C(=N)N)cc1)C2=O [(R)-3-{[2-(4-Carbamimidoyl-phenyl)-1-oxo-2,8-diaza-spiro[4.5]decane-8-carbonyl]-amino}-butyric acid] | 68 nM | – | – | – | – | – | –
6 | C[C@@H](CC(=O)O)CC(=O)N1CCC2(CC1)CCN(c1ccc(C(=N)N)cc1)C2=O [(R)-5-[2-(4-Carbamimidoyl-phenyl)-1-oxo-2,8-diaza-spiro[4.5]dec-8-yl]-3-methyl-5-oxo-pentanoic acid] | – | – | – | – | 112 nM | – | –
7 | C[C@H](CC(=O)O)CC(=O)N1CCC2(CC1)CCN(c1ccc(C(=N)N)cc1)C2=O [(S)-5-[2-(4-Carbamimidoyl-phenyl)-1-oxo-2,8-diaza-spiro[4.5]dec-8-yl]-3-methyl-5-oxo-pentanoic acid] | 350 nM | – | – | – | – | – | –
8 | CCOC(=O)CCNC(=O)N[C@H]1CCN(c2ccc(C(=N)N)cc2)C1=O [SC-57099B] | 68 nM | – | 166 nM | 362 nM | 137 nM | – | –
9 | N=C(N)c1ccc(N2CCC3(CCN(C(=O)COCC(=O)O)CC3)C2=O)cc1 [{2-[2-(4-Carbamimidoyl-phenyl)-1-oxo-2,8-diaza-spiro[4.5]dec-8-yl]-2-oxo-ethoxy}-acetic acid] | 108 nM | 260 nM | 273 nM | 691 nM | – | 393 nM | 812 nM

Continued by falling IC50 [1], values first:

Row | IC50 [1] | IC50 [2] | IC50 [3] | IC50 [4] | IC50 [5] | IC50 [6] | IC50 [7] | SMILES
10 | 59 nM | – | – | – | – | – | – | Cc1ccc(S(=O)(=O)N[C@@H](CNC(=O)N2CCC3(CC2)C(=O)N(c2ccc(C(=N)N)cc2)C(=O)N3C)C(=O)O)cc1 [(S)-3-{[3-(4-Carbamimidoyl-phenyl)-1-methyl-2,4-dioxo-1,3,8-triaza-spiro[4.5]decane-8-carbonyl]-amino}-2-(toluene-4-sulfonylamino)-propionic acid]
11 | 54 nM | – | 123 nM | 368 nM | 168 nM | 175 nM | 464 nM | N=C(N)c1ccc(N2CCC3(CCN(C(=O)CCCC(=O)O)CC3)C2=O)cc1 [5-[2-(4-Carbamimidoyl-phenyl)-1-oxo-2,8-diaza-spiro[4.5]dec-8-yl]-5-oxo-pentanoic acid]
12 | 53 nM | 110 nM | 120 nM | 365 nM | – | – | – | N=C(N)c1ccc(N2CCC3(CCN(C(=O)NCCC(=O)O)CC3)C2=O)cc1 [3-{[2-(4-Carbamimidoyl-phenyl)-1-oxo-2,8-diaza-spiro[4.5]decane-8-carbonyl]-amino}-propionic acid]
13 | 51 nM | – | 147 nM | 182 nM | 72 nM | – | – | CCOC(=O)COC1CCN(C(=O)[C@H](C)NC(=O)c2ccc(C(=N)NO)cc2)CC1 [((S)-1-{2-[4-(N-Hydroxycarbamimidoyl)-benzoylamino]-propionyl}-piperidin-4-yloxy)-acetic acid ethyl ester]
